We go through 28 compounds from the Deep4Chem optical property database.

The data set is described as follows: solvent given as SMILES.

Molecules are shown by their SMILES.

As to `CCCCCCCCCCCCCCCCN(CCCCCCCCCCCCCCCC)c1ccc(/C=C/c2cc[n+](Cc3cc(C[n+]4ccc(/C=C/c5ccc(N(CCCCCCCCCCCCCCCC)CCCCCCCCCCCCCCCC)cc5)cc4)cc(C[n+]4ccc(/C=C/c5ccc(N(CCCCCCCCCCCCCCCC)CCCCCCCCCCCCCCCC)cc5)cc4)c3)cc2)cc1`, the absorption maximum was 482 nm (in C1COCCO1); 506 nm (in CC(C)O); 481 nm (in CCCCCC); 498 nm (in CCCCCCCCO); 507 nm (in CCCCO); 508 nm (in CCCO). Further, the absorption maximum reads like this: (in CCO) 508 nm; (in CO) 509 nm; (in CS(C)=O) 486 nm; (in Cc1ccc(C)cc1) 483 nm; (in Cc1ccccc1) 483 nm; (in ClC(Cl)Cl) 514 nm. The same compound returned an absorption maximum (in ClCCl) of 516 nm and an absorption maximum (in c1ccccc1) of 484 nm.

For the compound `COC(=O)c1nc2c(N(C)C)nc(N(C)C)nc2n1Cc1ccccc1`, the absorption maximum is 344 nm (in C1COCCO1), 347 nm (in CC#N), 347 nm (in CO) and 351 nm (in ClCCl).

Under “in ClC(Cl)Cl”, `CCCCCCCCc1ccc(-c2ccc(-c3cc(-c4ccc(-c5ccc(CCCCCCCC)s5)c5nsnc45)c4ccc5c(-c6ccc(-c7ccc(CCCCCCCC)s7)c7nsnc67)cc(-c6ccc(-c7ccc(CCCCCCCC)s7)c7nsnc67)c6ccc3c4c65)c3nsnc23)s1` returned an absorption maximum of 452 nm.

Regarding `COc1ccc(-c2csc(/C(C#N)=C\Nc3ccc(C#N)cc3)n2)cc1`, the absorption maximum worked out at 376 nm (in CC#N); 378 nm (in CCO); 380 nm (in CN(C)C=O); 381 nm (in Cc1ccccc1); 379 nm (in ClCCl).

As for `COc1ccc2cc(-c3ccc(C(F)(F)F)cc3)oc(=O)c2c1`, the absorption maximum is 326 nm (in CCCCCC); 327 nm (in CCCCCCCCO); 326 nm (in CCCCO); 325 nm (in CCCO); 324 nm (in CCO); 326 nm (in CCOC(C)=O). Also, the absorption maximum is, setting by setting: (in CN(C)C=O) 328 nm; (in CO) 324 nm; (in ClC(Cl)Cl) 327 nm.

As for `C[Si]1(C)O[Si](C)(C)c2cc3cc4cc5c(cc4cc3cc21)C(=O)c1cc2cc3cc4c(cc3cc2cc1C5=O)[Si](C)(C)O[Si]4(C)C`, the absorption maximum (in ClC(Cl)Cl) is on record as 470 nm.

For the compound `F[B-]1(F)n2c(cc3c2-c2ccccc2CC3)C(c2ccc(I)cc2)=C2C=C3CCc4ccccc4C3=[N+]21`, under “in ClC(Cl)Cl”, the absorption maximum is 634 nm.

`c1ccc(N(c2ccccc2)c2ccc(-c3ncc(-c4ccc(-c5ccc(-c6cnc(-c7ccc(N(c8ccccc8)c8ccccc8)cc7)s6)s5)s4)s3)cc2)cc1` came in with an absorption maximum (in CO) of 425 nm.

Take `O=C1C=C(Nc2ccc(F)cc2)C(=O)c2ccccc21`: the absorption maximum reads like this: (in CCCCCC) 445 nm; (in CO) 461 nm.

As to `O=C1c2ccc3c4c(Oc5ccccc5)cc5c6c(ccc(c7c(Oc8ccccc8)cc(c2c37)C(=O)N1c1ccc(O)cc1)c64)C(=O)N(c1ccc(O)cc1)C5=O`, the absorption maximum is recorded as 513 nm (in C1CCOC1), 487 nm (in CN1CCCC1=O) and 495 nm (in CN(C)C=O).

In turn, `CC1=CC(C)=[N+]2C1=C(c1ccc(I)cc1)c1c(C)cc(C)n1[B-]21Oc2ccc3ccccc3c2-c2c(ccc3ccccc23)O1` returned an absorption maximum (in ClC(Cl)Cl) of 506 nm.

Where the note is “in ClC(Cl)Cl”, `O=C1CC(c2ccc([N+](=O)[O-])cc2)c2c(c3ccccc3c3nc4ccccc4nc23)O1` (stereo not given) gave an absorption maximum of 408 nm.

`CC(N)=O`: for the setting “in O”, the absorption maximum amounted to 220 nm.

As to `COc1cccc(C2=CC3=C(c4c(C)cc(C)cc4C)c4cc(-c5cccc(OC)c5)c(-c5cccc(OC)c5)n4[B-](F)(F)[N+]3=C2c2cccc(OC)c2)c1`, the absorption maximum is 596 nm (in C1CCCCC1); 592 nm (in C1CCOC1); 581 nm (in CC#N); 596 nm (in Cc1ccccc1); 588 nm (in ClCCl).

On to `CC(C)(C)c1ccc(-c2nc3c4ccc(-c5cc6ccccc6c6ccccc56)cc4c4cc(-c5cc6ccccc6c6ccccc56)ccc4c3n2-c2ccc(C(C)(C)C)cc2)cc1`, for which the absorption maximum was 325 nm (in C1CCOC1); 325 nm (in C1COCCO1); 324 nm (in CC#N); 325 nm (in CCCCCC); 326 nm (in CCCCOCCCC); 325 nm (in CCN(CC)CC). The compound also showed an absorption maximum (in CCOC(C)=O) of 324 nm; an absorption maximum (in CCOCC) of 234 nm; an absorption maximum (in CN(C)C=O) of 328 nm; an absorption maximum (in Cc1ccccc1) of 327 nm; an absorption maximum (in ClC=C(Cl)Cl) of 327 nm; an absorption maximum (in ClCCl) of 328 nm.

As for `N=C(N)N`, the absorption maximum (in O) is 265 nm.

`COc1ccc2c(C#N)cc3ccc4cc(C#N)c5ccc(OC)cc5c4c3c2c1` showed an absorption maximum (in ClC(Cl)Cl) of 422 nm.

For `c1ccc(-c2ccc(-c3ccc(-c4ccccc4)cc3)cc2)cc1`, the absorption maximum stood at 299 nm (in C1CCOC1) and 310 nm (in C1COCCO1).

Turning to `CC(C)CCCC(C)CCN1C(=O)c2ccc3c(-c4ccccc4)c4c5ccc6c7c(ccc(c(-c8ccccc8)c4c4ccc(c2c34)C1=O)c75)C(=O)N(CCC(C)CCCC(C)C)C6=O` (stereo not given), the absorption maximum (in ClCCl) amounted to 630 nm.

Compound `[NH3+]c1ccc2ccc(O)cc2c1` displayed an absorption maximum (in O) of 328 nm.

`COC(=O)C1(C(=O)OC)Cc2c(C#Cc3ccccc3)c(-c3ccccc3)c3c(-c4ccccc4)c(-c4ccccc4)c(-c4ccccc4)c(-c4ccccc4)c3c2C1` registered an absorption maximum (in C1CCOC1) of 339.52 nm.

As for `COc1ccc2c(c1)O[B-]13Oc4cc(OC)ccc4-c4cc(-c5ccccc5)c(n41)N=C1C(c4ccccc4)=CC2=[N+]13` (stereo not given), the absorption maximum (in ClC(Cl)Cl) amounted to 765 nm.

`c1ccc(CSc2c3ccc(=[N+]4CCCCC4)cc-3oc3cc(N4CCCCC4)ccc23)cc1` gave an absorption maximum (in ClCCl) of 598 nm.

Compound `Cc1ccc(C2=C3C=CC(Cl)=[N+]3[B-](F)(F)n3c(Cl)ccc32)cc1` gave an absorption maximum (in C1CCCCC1) of 514 nm; an absorption maximum (in C1CCOC1) of 511 nm; an absorption maximum (in CC#N) of 508 nm; an absorption maximum (in CCOC(C)=O) of 509 nm; an absorption maximum (in CO) of 508 nm; an absorption maximum (in Cc1ccccc1) of 516 nm. For the setting “in ClC(Cl)Cl”, the absorption maximum is 515 nm.

With `CN(C)c1ccc(C2=Nc3sc4cc(C(F)(F)F)ccc4[n+]3[B-](F)(F)O2)cc1`, the absorption maximum is, setting by setting: (in C1CCOC1) 430 nm; (in CC#N) 427 nm; (in CC(C)=O) 431 nm; (in Cc1ccccc1) 428 nm; (in ClCCl) 431 nm.

Take `CC(C)(C)c1ccc(C2=c3sc(-c4ccc(C(C)(C)C)cc4)cc3=[N+]3C2=Nc2c(-c4ccc(C(C)(C)C)cc4)c4sc(-c5ccc(C(C)(C)C)cc5)cc4n2[B-]3(F)F)cc1`: the absorption maximum (in ClC(Cl)Cl) amounted to 767 nm.

Under “in O”, `O=C(NCc1cc(=O)oc2cc([O-])c(Br)cc12)c1cccnc1` showed an absorption maximum of 370 nm.

`CCCCCCc1ccc(-n2c3c4cccc(OC)c4nc(-c4ccc(OC)cc4)c3c3c2c2c(-c4ccc(OC)cc4)nc4c(OC)cccc4c2n3-c2ccc(CCCCCC)cc2)cc1`: the absorption maximum (in ClC(Cl)Cl) was 317 nm.
